Columns and labels:
[1] = xn = mol fraction of the nth substance listed; details: 298.15 K, 100 kPa, Liquid; for speed of sound: Frequency=3 MHz, Sing-around technique in a fixed-path interferometer; for mass density: Vibrating tube method
[2] = refractive index (Na D-line) (dimensionless); xn = mol fraction of the nth substance listed; details: 298.15 K, 100 kPa, Liquid, Standard Abbe refractometry
[3] = 101.33 kPa, Liquid; for speed of sound: Sing-around technique in a fixed-path interferometer; for mass density: Vibrating tube method
[4] = refractive index (Na D-line) (dimensionless); details: 101.33 kPa, Liquid, Standard Abbe refractometry

CCCCNCCCC [dibutylamine] + CN(C)C=O
Details	mass density, [1] [kg/m3]	refractive index, [2]	speed of sound, [1] [m/s]
x2 = 0.0642	761.171	–	1246.4
x2 = 0.1038	–	1.41553	–
x2 = 0.1134	765.782	–	1250.5
x2 = 0.1647	770.882	–	1255
x2 = 0.2076	–	1.41628	–
x2 = 0.2121	775.872	–	1259.5
x2 = 0.2734	782.835	–	1266.1
x2 = 0.3213	788.624	–	1271.6
x2 = 0.3608	–	1.41761	–
x2 = 0.4114	800.702	–	1283.5
x2 = 0.4526	806.766	–	1289.7
x2 = 0.4897	–	1.419	–
x2 = 0.5072	815.344	–	1298.6
x2 = 0.5574	823.977	–	1307.9
x2 = 0.5933	–	1.42034	–
x2 = 0.5996	831.688	–	1316.3
x2 = 0.6514	842.013	–	1328.1
x2 = 0.6869	849.571	–	1336.8
x2 = 0.688	–	1.42178	–
x2 = 0.7361	860.924	–	1350.4
x2 = 0.7709	–	1.42323	–
x2 = 0.7904	874.714	–	1367.5
x2 = 0.8398	–	1.42459	–
x2 = 0.8418	889.103	–	1385.9
x2 = 0.8921	904.666	–	1406.1
x2 = 0.8989	–	1.42587	–
x2 = 0.9471	923.65	–	1431
x2 = 0.9497	–	1.42706	–
x2 = 0.9738	–	1.42765	–

CCCCN [1-butanamine]
Details	mass density, 293.15 K [kg/m3]	mass density, 298.15 K [kg/m3]	mass density, 303.15 K [kg/m3]	refractive index, 293.15 K	refractive index, 298.15 K	refractive index, 303.15 K	speed of sound, 293.15 K [m/s]	speed of sound, 298.15 K [m/s]	speed of sound, 303.15 K [m/s]
[3]	737.048	732.231	727.452	–	–	–	1268.3	1246	1224.6
[4]	–	–	–	1.4006	1.39786	1.395	–	–	–

CCCNCCC [dipropylamine]
Details	mass density, 293.15 K [kg/m3]	mass density, 298.15 K [kg/m3]	mass density, 303.15 K [kg/m3]	refractive index, 293.15 K	refractive index, 298.15 K	refractive index, 303.15 K	speed of sound, 293.15 K [m/s]	speed of sound, 298.15 K [m/s]	speed of sound, 303.15 K [m/s]
[3]	738.194	733.618	729.098	–	–	–	1209.4	1187.7	1167.2
[4]	–	–	–	1.40432	1.40139	1.39883	–	–	–

CCCCCCN [1-hexanamine]
Details	mass density, 293.15 K [kg/m3]	mass density, 298.15 K [kg/m3]	mass density, 303.15 K [kg/m3]	refractive index, 298.15 K	speed of sound, 293.15 K [m/s]	speed of sound, 298.15 K [m/s]	speed of sound, 303.15 K [m/s]
[3]	764.423	760.073	755.848	–	1324	1303.6	1283.6
[4]	–	–	–	1.41577	–	–	–

CN(C)C=O [dimethylformamide]
Details	mass density, 293.15 K [kg/m3]	mass density, 298.15 K [kg/m3]	mass density, 303.15 K [kg/m3]	refractive index, 293.15 K	refractive index, 298.15 K	refractive index, 303.15 K	speed of sound, 293.15 K [m/s]	speed of sound, 298.15 K [m/s]	speed of sound, 303.15 K [m/s]
[3]	948.881	944.081	939.361	–	–	–	1476.8	1457.2	1438.2
[4]	–	–	–	1.43055	1.42828	1.42603	–	–	–

CCCCNCCCC [dibutylamine]
Details	mass density, 293.15 K [kg/m3]	mass density, 298.15 K [kg/m3]	mass density, 303.15 K [kg/m3]	refractive index, 293.15 K	refractive index, 298.15 K	refractive index, 303.15 K	speed of sound, 293.15 K [m/s]	speed of sound, 298.15 K [m/s]	speed of sound, 303.15 K [m/s]
[3]	759.695	755.525	751.458	–	–	–	1261.1	1241.5	1222.5
[4]	–	–	–	1.41724	1.41488	1.41253	–	–	–

CCCCCCN [1-hexanamine] + CN(C)C=O
Details	mass density, [1] [kg/m3]	refractive index, [2]	speed of sound, [1] [m/s]
x2 = 0.0506	765.582	1.41613	1307.1
x2 = 0.0992	771.096	–	1310.8
x2 = 0.1725	779.897	1.41707	1316.7
x2 = 0.2548	790.546	1.41779	1324.2
x2 = 0.3476	803.611	1.4187	1333.7
x2 = 0.4461	818.861	1.4198	1345.5
x2 = 0.55	836.751	1.42107	1360.1
x2 = 0.6022	846.551	–	1368.3
x2 = 0.6558	–	1.42257	–
x2 = 0.7056	867.688	–	1387.1
x2 = 0.7573	–	1.42411	–
x2 = 0.7996	889.217	–	1406.8
x2 = 0.8492	901.602	1.42564	1418.4
x2 = 0.8982	914.549	–	1430.4
x2 = 0.953	929.99	1.42747	1444.7
